{"source": "paper PMC2228077", "about": "“The bioavailability of oral GI147211 (GG211), a new topoisomerase I inhibitor” (British Journal of Cancer, 1997)", "key": {"[1]": {"test": "Plasma pharmacokinetics and absolute bioavailability, oral day 1 vs 30-min i.v. infusion day 2, patients with solid tumours", "design": "mean maximal plasma concentration (Cmax) after intravenous dosing: dose or concentration left out as unconfirmed", "description": "British Journal of Cancer (1997) 76(7), 946-951 ? 1997 Cancer Research Campaign The bloavailability of oral Gil 47211 (GG21 1), a new topoisomerase I inhibitor CJH Gerrits', JHM Schellens', GJ Creemers', P Wissel2, ASTh Planting', JF Pritchard2, S DePee2, M de Boer-Dennert', M Harteveld' and J Verweij' 'Department of Medical Oncology, Rotterdam Cancer Institute (Daniel den Hoed Kliniek) and University Hospital, The Netherlands; 2Glaxo Wellcome, Department of Pharmacokinetics, NC, USA Summary Topoisomerase I inhibitors are new compounds of interest for cancer chemotherapy. We performed a study with Gl147211, a new semisynthetic camptothecin analogue, to determine the absolute bioavailability of the drug given orally. […] Gi147211 was given orally on day 1 and as a 30-min infusion daily on days 2-5. The treatment course was repeated every 3 weeks. In subsequent patient cohorts, the dose of the oral formulation was escalated from 1.5 mg m-2 to 6.0 mg m-2; the dose for i.v. administration was fixed at 1.2 mg m-2. Plasma pharmacokinetics was performed on day 1 and 2 of the first course and on day 1 of the second course using a validated high-performance liquid chromatographic assay. […] Keywords: G1147211 (GG211); bioavailability; topoisomerase I inhibitor; phase I study G1147211 [7-(methylpiperazinomethylene)-10,11-ethylenedioxy- 20(S)-camptothecin dihydrochloride] is a water-soluble semisyn- thetic analogue of camptothecin (CPT). […] Its further development was stopped because of unpredictable and severe myelosuppression, gastro- intestinal toxicity and haemorrhagic cystitis (Gottlieb et al, 1970; Creaven et al, 1972; Muggia et al, 1972). Interest in CPT was renewed in the 1980s, because topoiso- merase I was identified as the single cellular target of CPT (Hsiang et al, 1988 1989), and an overexpression of topoisomerase I was found in various tumour cell lines but not in normal tissues (Giovanella et al, 1989; Hirabayashi et al, 1992). Topoisomerase I is a nuclear enzyme that resolves topological problems of the torsionally strained (supercoiled) DNA by forming a covalent adduct between topoisomerase I and the DNA, termed the cleav- able complex. This catalytic intermediate creates single-strand DNA breaks, allowing the DNA molecule to rotate around the intact DNA strand at the cleavage site, leading to a relaxation of Received 29 November 1996 Revised 27 March 1997 Accepted 1 April 1997 Correspondence to: CJH Gerrits, Department of Medical Oncology, Rotterdam Cancer Institute, (Daniel den Hoed Kliniek) and University Hospital, Groene Hilledijk 301, 3075 EA Rotterdam, The Netherlands the DNA molecule, and in this way replication, transcription and other DNA functions can proceed. These enzyme-bridged breaks are then resealed by topoisomerase I (Champoux, 1976; Muller, 1985; Muller et al, 1985; Camilloni et al, 1989). […] It has been documented that camptothecin (CPT) interferes with the breakage-reunion process of topoiso- merase I by stabilizing the enzyme-DNA cleavable complexes (Liu et al, 1989)."}, "[2]": {"tested_on": "xenografts of human cancers, including HT-29 and SW-48 colon, PC-3 prostate, MX-1 breast, H460 lung, SKOV3 ovarian and KB epidermoid carcinomas", "design": "method as in Emerson et al, 1993, 1995", "settings": "ref Emerson et al, 1993, 1995; cited from earlier work"}, "[3]": {"design": "method as in Gerrits et al, 1996", "settings": "i.v. daily x5 every 3 weeks; ref Gerrits et al, 1996; cited from earlier work"}, "[4]": {"settings": "individual patients 1-19, i.v. 1.2 mg m-2, Table 3"}, "[5]": {"settings": "individual patients, oral 6 mg m-2, Fed (after breakfast), Tables 3 and 4"}, "[6]": {"settings": "individual patients, oral 6 mg m-2, fasted, Table 3"}, "[7]": {"settings": "oral 6.0 mg m-2, lactone, Table 4"}}, "note": "Values joined by “and” are separate entries in the source; they are usually repeats but may differ in a detail not shown here. Equal entries are not always repeated. Structures can show the parent of a compound that is named as a salt."}
{"molecule": "CC[C@@]1(O)C(=O)OCc2c1cc1n(c2=O)Cc2c-1nc1cc3c(cc1c2CN1CCN(C)CC1)OCCO3", "note": "[GI147211, 7-(methylpiperazinomethylene)-10,11-ethylenedioxy-20(S)-camptothecin dihydrochloride]", "values": [{"measurement": "Oral AUC total, mean", "setting": "[1]; all oral doses 1.5-6 mg m-2, total = lactone plus acid, Table 3", "result": 36.33, "unit": "ng·h/mL"}, {"measurement": "intrapatient variability of the absolute bioavailability, median", "setting": "[1]; course 1 vs course 2", "result": 31, "unit": "%"}, {"measurement": "intrapatient variability of the absolute bioavailability, range", "setting": "[1]; course 1 vs course 2", "result": "3-88%"}, {"measurement": "absolute bioavailability, range between patients", "setting": "[1]; human, in vivo", "result": "4.8-24.3%"}, {"measurement": "mean maximal plasma concentration (Cmax) after intravenous dosing", "setting": "[1]; human, in vivo", "result": 21.76, "unit": "ng/mL"}, {"measurement": "i.v. AUC, mean", "setting": "[1]; human, in vivo, iv, 1.2 mg", "result": 31.84, "unit": "ng·h/mL"}, {"measurement": "cases with Tmax < 0.5 h", "setting": "[1]; human, in vivo, po", "result": "13 of 19"}, {"measurement": "dose dependence of oral bioavailability", "setting": "[1]; human, in vivo, po", "result": "not dose dependent"}, {"measurement": "median Tmax", "setting": "[1]; human, in vivo, po", "result": 0.5, "unit": "h"}, {"measurement": "terminal half-life after oral administration (lactone), range", "setting": "[1]; human, in vivo, po", "result": "2.0 to 13.0", "unit": "h"}, {"measurement": "Oral Tmax", "setting": "[1]; human, in vivo, po, 1.5 mg", "result": 0.25, "unit": "h"}, {"measurement": "Absolute bioavailability fasted, mean", "setting": "[1]; human, in vivo, po, 6 mg", "result": 11.4, "unit": "%"}, {"measurement": "Absolute bioavailability fed, mean", "setting": "[1]; human, in vivo, po, 6 mg", "result": 11.2, "unit": "%"}, {"measurement": "Oral Tmax fasted, mean", "setting": "[1]; human, in vivo, po, 6 mg", "result": 0.65, "unit": "h"}, {"measurement": "Oral Tmax fed, mean", "setting": "[1]; human, in vivo, po, 6 mg", "result": 0.69, "unit": "h"}, {"measurement": "influence of fasting or fed state on bioavailability", "setting": "[1]; human, in vivo, po, 6 mg", "result": "no significant influence"}, {"measurement": "influence of fed or fasted state on Tmax", "setting": "[1]; human, in vivo, po, 6 mg", "result": "not significantly influenced"}, {"measurement": "mean maximal plasma concentration (Cmax) after oral dosing", "setting": "[1]; human, in vivo, po, 6 mg", "result": "4.02 ? 3.57 ng ml-1"}, {"measurement": "i.v. t1/2, mean", "setting": "[1]; i.v. 1.2 mg m-2, 13 patients of 6.0 mg m-2 level, Table 4", "result": 8.53, "unit": "h"}, {"measurement": "Oral AUC total", "setting": "[1]; individual patient 18, oral 6 mg m-2, Fed, lactone plus acid, Table 3", "result": 14.69, "unit": "ng·h/mL"}, {"measurement": "i.v. AUC", "setting": "[1]; [4]", "result": 19.11, "unit": "ng·h/mL"}, {"measurement": "i.v. t1/2", "setting": "[1]; [4]", "result": "6.2 h (2×) and 6.0 h and 14.3 h and 5.6 h and 6.7 h and 7.0 h and 5.2 h and 9.5 h and 10.9 h and 10.5 h and 8.9 h and 6.8 h and 4.5 h and 18.6 h and 14.6 h and 7.2 h and 1.9 h and 4.9 h"}, {"measurement": "Oral t1/2", "setting": "[1]; individual patients, oral 1.5 mg m-2, Table 3", "result": "2.5 h and 4.0 h"}, {"measurement": "Oral AUC total", "setting": "[1]; individual patients, oral 1.5 mg m-2, lactone plus acid, Table 3", "result": "3.12 ng·h/mL and 11.16 ng·h/mL"}, {"measurement": "Oral t1/2", "setting": "[1]; individual patients, oral 3 mg m-2, Table 3", "result": "12.2 h and 7.7 h and 9.5 h and 5.1 h"}, {"measurement": "Oral AUC total", "setting": "[1]; individual patients, oral 3 mg m-2, lactone plus acid, Table 3", "result": "70.82 ng·h/mL and 12.81 ng·h/mL and 15.21 ng·h/mL and 24.05 ng·h/mL"}, {"measurement": "Oral t1/2", "setting": "[1]; individual patients, oral 3 mg m-2, second course (C2), Table 3", "result": "2.0 h and 11.7 h"}, {"measurement": "Absolute bioavailability Lactone", "setting": "[1]; [5]", "result": "10.5% and 11.9%"}, {"measurement": "Oral t1/2", "setting": "[1]; [5]", "result": "8.7 h and 6.0 h (2×) and 8.2 h and 11.1 h and 11.9 h and 4.1 h and 3.4 h and 3.5 h"}, {"measurement": "Absolute bioavailability Lactone", "setting": "[1]; [6]", "result": 11.1, "unit": "%"}, {"measurement": "Absolute bioavailability Total", "setting": "[1]; [6]", "result": 11.1, "unit": "%"}, {"measurement": "Oral t1/2", "setting": "[1]; [6]", "result": "4.2 h and 4.5 h and 4.3 h (2×) and 6.1 h and 10.4 h and 9.7 h and 7.8 h and 6.2 h and 13.0 h and 6.7 h and 5.0 h and 3.7 h"}, {"measurement": "Oral AUC total", "setting": "[1]; individual patients, oral 6 mg m-2, fasted, lactone plus acid, Table 3", "result": "157.68 ng·h/mL and 30.60 ng·h/mL and 36.73 ng·h/mL and 39.35 ng·h/mL and 55.59 ng·h/mL and 27.76 ng·h/mL and 13.89 ng·h/mL and 28.78 ng·h/mL and 30.71 ng·h/mL and 40.52 ng·h/mL and 40.50 ng·h/mL"}, {"measurement": "Oral t1/2", "setting": "[1]; individual patients, oral 6 mg m-2, second course (C2), Table 3", "result": "7.8 h and 7.2 h"}, {"measurement": "courses in which plasma concentrations could be measured at 24 h", "setting": "[1]; oral", "result": "21 % of courses"}, {"measurement": "courses in which plasma concentration-time curves could be measured up to 12 h", "setting": "[1]; oral 6.0 mg m-2, lactone and total", "result": "68 % of courses"}, {"measurement": "Oral t1/2 fasted, mean", "setting": "[1]; [7]", "result": 6.61, "unit": "h"}, {"measurement": "Oral t1/2 fed, mean", "setting": "[1]; [7]", "result": 6.84, "unit": "h"}, {"measurement": "activity against xenografts of human cancers", "setting": "[2]", "result": "significant cytotoxicity"}, {"measurement": "main toxicity", "setting": "[3]", "result": "myelosuppression"}]}
